Reference: publication PMC9738927, “A Newly Identified Monoterpenoid-Based Small Molecule Able to Support the Survival of Primary Cultured Dopamine Neurons and Alleviate MPTP-Induced Toxicity In Vivo” (Molecules, 2022)

What was measured:
[1] = Pharmacokinetics in whole blood after a single oral dose (HPLC-MS/MS); type: in vivo, CD1 IGS mice; details: single oral 10 mg/kg
Protocol: Six CD1 IGS mice were administered orally with the compound PA96 in Tween 80 at doses of 10 mg/kg. Blood was collected from the tail after the amputation of a small distal piece. Time points were 5, 10, 30, 60, and 120 min after injection. Experimental blood samples were transferred into tubes for the precipitation of blood proteins with a mixture of zinc sulfate and methanol (2:8, v/v). A set of calibrators were prepared in advance, followed by their preparation protocol, and analyzed by HPLC-MS/MS for standard comparison. The calibration curve was built in the range of 25–2000 ng/mL. According to the signal-concentration profile, the content of PA96 in the experimental blood samples at each time point was calculated.
The stock solution of PA96 (1.0 mg/mL) was prepared by dissolving an accurately weighed amount of the substance in 100% methanol. To obtain a set of working solutions with concentrations of 0.01, 0.05, 0.1, 0.25, 0.5, 1, 2.5, 5, 7.5, 10, 15, and 20 µg/mL, the stock solution of PA96 was diluted with methanol. Calibration standards (calibrators) were prepared by mixing 10 μL of each individual working solution and 90 μL of mouse whole blood. Samples were stirred gently on an orbital shaker at 1000 rpm and left at 4 °C for 1 h for equilibration. The stock solution of IS with a concentration of 1.0 mg/mL was prepared by dissolving a weighed amount of 2-adamantylamine hydrochloride in pure methanol. The solution for the protein precipitation procedure was a mixture of 2 parts of 0.2 M aqueous solutions of zinc sulfate per 8 parts of a solution of IS in methanol with a concentration of 10 µg/mL. All solutions were stored at −18 °C and brought to their ambient temperature before use.
An aliquot of 10 µL of each whole blood sample was placed into an Eppendorf microtube (1.5 mL), then the precipitation solution of 50 µL was added to each tube. All samples were vortexed for 20–30 s and then centrifuged (Eppendorf MiniSpin, Eppendorf, Germany) for 10 min at 13,400 rpm. The supernatant was transferred into a chromatographic vial and analyzed.
The LC-MS/MS analysis was performed using an LC-20AD Prominence chromatograph equipped with an autosampler thermostated at +10 °C (Shimadzu, Japan) and a 3200 QTRAP mass spectrometer equipped with an ESI source (AB SCIEX, USA). Separation was achieved on a ProntoSil-120-5-C18 AQ column (2.0 × 75 mm, 5 μm particles, (EcoNova, Novosibirsk, Russia)) thermostated at +35 °C. The mobile phase was composed of water containing 0.1% formic acid (eluent A) and methanol containing 0.1% formic acid (eluent B). The gradient elution program was as follows: 0 min-10% (B); 0.5 min-10% (B); 7 min-98% (B); 9 min-98% (B); the flow rate was 200 μL/min.
The mass spectrometer was operated using multiple reaction monitoring (MRM) in positive ion mode. Ionization was conducted by applying a voltage of 5500 V, and the source temperature was set at +350 °C. For the analyte and IS, the optimized source parameters, viz. CUR (curtain gas), GS1 (Gas 1), and GS2 (Gas 2) were set at 20 psi. The CAD (collisionally activated dissociation) gas was nitrogen, and the parameter was set as high. The parameters of PA96, viz. MRM transitions, declustering potentials (DP), collision energies (CE), and collision cell exit potentials (CXP) are presented in Table 3. The dwell time was 100 msec. Analyst 1.6.2 software (AB SCIEX, USA) was used for instrument control and data acquisition, and MultiQuant 2.1 software (AB SCIEX, USA) was used for quantification. To calculate the main pharmacokinetic parameters, the Microsoft Excel–PKSolver was used.

MPTP-treated mice = assay: Open field test in the acute MPTP mouse model of PD; type: in vivo
Protocol: MPTP was injected intraperitoneally into mice of C57Bl/6 line every 2 h in 8 h period in one day in a dose of 20 mg/kg for a total of four doses as described before, and one additional dose of MPTP was injected on the 7th day. The studied compound PA96 was dissolved in saline containing 0.5% Tween 80 just before use. PA96 in a dose of 1 and 10 mg/kg or VEH was administrated per os 24 h after the last injection of MPTP. Then, PA96 or VEH was injected for 14 days in a 5-day-per-week regime for a total of […].
The effectiveness of the studied medications was evaluated according to their ability to reduce the symptoms of hypokinesia induced by MPTP on days 1, 7, and 14 of the experiment. Hypokinesia caused by neurotoxin administration was evaluated with the “open field” test performed for 2 min using Tru Scan (U.S.) 2 h after the administration of the studied compound, registering the main markers of the locomotor and exploratory activities: time of locomotor activity (s) and movement distance (cm).

[2] = tested on: MPTP-lesioned C57BL/6 mice; assay: DA and DOPAC levels in midbrain and striatum by HPLC-ED after MPTP lesion; type: in vivo
Protocol: Neurochemical analyses via HPLC-ED were conducted as described before. Microdissected samples of the striatum (ST) and midbrain were homogenized in 300 and 400 µL of cold 0.6 M HClO4, respectively, using a motor-driven grinder (Z359971, Sigma-Aldrich, USA) and the homogenate was spun for 15 min at 12,000 rpm (+4 °C). The pellet was diluted in 1 mL of 0.1 M NaCl and used for protein quantitation by Bradford (Bio Rad, USA) according to the manufacturer’s protocol. The clear supernatant was diluted twice with pure water and used for assay of DA and […] (DOPAC) by HPLC on Luna C18(2) column (5 μm particle size, L × I.D. 75 × 4.6 mm, Phenomenex, Torrance, CA, USA) with electrochemical detection (750 mV, DECADE II™ Electrochemical Detector; Antec, The Netherlands). The standard mixes containing 1, 2, and 3 ng of DA and DOPAC were repeatedly assayed throughout the entire procedure and used to plot the calibration curves for each substance. The areas of peaks were estimated using LabSolution LG/GC software version 5.54 (Shimadzu Corporation, Japan) and calibrated against the calibrated curves for corresponding standards. The contents of DA and DOPAC were expressed nanogram (ng) per milligram (mg) of protein assayed by Bradford.

[3] = CD1 IGS, mouse, whole blood, blood

C=C(C)[C@@H]1CC=C(C)[C@@H](Sc2nc[nH]n2)[C@@H]1O [PA96, (1R,2R,6S)-2-(1H-1,2,4-triazol-3-ylthio)-3-methyl-6-(prop-1-en-2-yl)cyclohex-3-enol]
half-life ([1]; CD1 IGS, mouse, whole blood, po, 10 mg/kg, blood): ~24 min | AUC0-t [1, 3]: 278 ng·h/mL | Cmax [1, 3]: 550 ng/mL | Tmax [1, 3]: 5 min | AUC(0-inf) ([1]; CD1 IGS, mouse, whole blood, blood, read-out: AUC0-inf_obs): 290 ng·h/mL | MRT inf ([1]; CD1 IGS, mouse, whole blood, blood, read-out: MRT0-inf_obs (converted)): 29.7 min | Cl/F_obs ([1]; blood): (5.8 ± 0.6) × 10^−4 (mg/kg)/(ng/mL)/min | Vz/F_obs ([1]; blood): (18.9 ± 0.6) × 10^−3 (ml/kg)/(ng/mL) | time at which the minimum detectable concentration in blood was observed [1]: 1 h | tolerability of repeated dosing (MPTP-treated mice; 1 mg/kg and 10 mg/kg administered for 14 days): well tolerated | duration of locomotor activity in open field (MPTP-treated mice; MPTP-treated mice, 1 mg/kg, 24 h time point, p = 0.1328 vs VEH): on VEH level | movement distance in open field (MPTP-treated mice; MPTP-treated mice, 1 and 10 mg/kg per os): did not influence | MPTP-induced reduction in DA level in the midbrain [2]: tended to alleviate | DA and DOPAC concentrations in ST or midbrain ([2]; 10 mg/kg): did not affect
